In US4680311A, “Method for the treatment of systemic mycosis” (Taisho Pharmaceutical Co., Ltd., priority 1985, dated 1987):
Read-outs that look alike come from different tables or passages of the source.

Columns and labels:
[1] = test system: Candida albicans; assay type: in vivo, Candida albicans TIMM 0239 in female SPF Crj:CD-1 (ICR) mice; conditions: for Survival rate / Average viable counts recovered (per mouse): twice daily, 14 days; for Survival rate: control 0/5; for Average viable counts recovered (per mouse): kidneys, control 4.87 × 10^7
Description: (§1) Female SPF mice Crj:CD-1 (ICR) strain, 4 weeks of age, weighing 18 g±1 g, were used as test animals. One loopful organisms of Candida albicans TIMM 0239 grown on Sabouraud's glucose agar slants were inoculated into Sabouraud's glucose broth containing 0.5% yeast extract. Then cultures were grown aerobically at 37° C. for 18 hours. The organisms were harvested from the cultures, washed twice with sterilized physiological saline, and finally suspended in saline. A total number of organisms was counted in a Burker-Turk hemocytometer. Thus prepared cell suspension was adjusted to contain 10^6 cells/ml, 0.2 ml of which was then injected into the tail vein in each mouse. Infected mice were allocated randomly to different groups. Each group consisted of eight mice.
(§2) (S)-2-amino-5-hydroxy-4-oxopentanoicacid was dissolved in sterilized physiological saline. The mice in the treated groups received the solution of this compound in a dose of 50 mg per kg mouse body weight once daily via an intravenous, subcutaneous, intraperitoneal or oral route for 5 consecutive days, starting on the day of infection. The first treatment was given immediately after a challenge of Candida albicans. The untreated control animals were intravenously given the same volume of saline in place of the test compound solution. The animals were observed daily for 10 days postinfection.
The same experimental conditions as for Test Example 1 were employed, except that all groups of five animals were infected with 1.0×10^6 organisms and treated with either 25, 50 or 100 mg/kg of the test compound twice daily for 14 consecutive days. Duration of observation period was two weeks after infection.
The criteria to evaluate efficacy of the test compound include survival rate and viable counts of Candida albicans recovered from the kidneys of infected animals. Both kidneys were excised from all the animals at the end of the experimental period, homogenized and cultured on Sabouraud's glucose agar plates for assay of viable counts.

[2] = test system: Candida albicans; test: protective and therapeutic efficacy in mice experimentally infected with Candida albicans; assay type: in vivo
Description: as §1
as §2, with “postinfection. […]” for “postinfection.”

[3] = test system: pathogenic human tubercle bacilli; conditions: A. Miyake, Chem. Pharm. Bull., 8, 1071 (1960); cited from earlier work
[4] = test system: Candida albicans TIMM 0239; test: Test Example 1: survival of mice with systemic Candida albicans infection; assay type: in vivo, Candida albicans TIMM 0239 in female SPF Crj:CD-1 (ICR) mice; conditions: for Survival rate: 50 mg/kg once daily, 5 days, observed 10 days postinfection, control 0/8
Description: as §1, §2

[5] = test system: fungi; conditions: A. Miyake, Chem. Pharm. Bull., 8, 1071 (1960); cited from earlier work
[6] = Acute toxicity in mice; assay type: in vivo; conditions: mouse, in vivo, mice
Description: (§3) This finding leads the inventors to possible usefulness of this substance for the therapy of human cases of candidiasis and other systemic mycoses. This substance is an extremely specific antimycotic agent in that it quite differs in chemical structure from any existing antimycotic agents.

[7] = test system: mice; test: Acute toxicity in mice; assay type: in vivo
Description: as §3

For N[C@@H](CC(=O)CO)C(=O)O [(S)-2-amino-5-hydroxy-4-oxopentanoicacid], the Survival rate ([1]; 25 mg/kg oral) was 1/5, the Survival rate ([1]; 50 mg/kg oral) was 2/5 and the Survival rate ([1]; 100 mg/kg oral) was 5/5. The “Average viable counts recovered (per mouse)” value ([1]; 25 mg/kg oral) was 1.45 × 10^7 per mouse, the “Average viable counts recovered (per mouse)” value ([1]; 50 mg/kg oral) was 1.41 × 10^6 per mouse and the “Average viable counts recovered (per mouse)” value ([1]; 100 mg/kg oral) was 2.41 × 10^5 per mouse. For the same compound, the “correlation between therapeutic efficacy and oral dose” value ([1]; oral, 25, 50 or 100 mg/kg) was “close correlation”, the “protective and therapeutic efficacy” value [2] was “significant protective and therapeutic efficacy” and the “activity against pathogenic human tubercle bacilli” value [3] was “highly active”. The Survival rate ([4]; intraperitoneal) was 0/8, the Survival rate ([4]; intravenous) was 4/8 and the Survival rate ([4]; oral) was 4/8. For the same compound, the Survival rate ([4]; subcutaneous) was 0/8, the therapeutic efficacy ([4]; especially by intravenous or oral route, murine systemic candidiasis) was “significant therapeutic efficacy” and the “in vitro antimycotic activity” value [5] was “does hardly exert an in vitro antimycotic activity”. The LD50 ([6]; ip) was ≥ 5000 mg/kg, the LD50 ([6]; po) was ≥ 6000 mg/kg and the LD50 ([6]; sc) was ≥ 5000 mg/kg. For the same compound, the “toxicity compared with existing antimycotic drugs” value ([7]; acute toxicity, mice) was “lower than that of any existing antimycotic drugs” and the “tolerability in experimental animals” value ([7]; mouse, in vivo) was “very high tolerability”.
